From patent US20250248968A1, “COMPOSITION COMPRISING CAPSAICIN OR A CAPSACINOID” (MESTEX AG, priority 2019, published 2025)

Tests used:
Assay type in all cases: in vivo, human
[1] = system: patient with anterior cruciate ligament rupture with medial meniscal tear; experiment: Example 2: intra-articular treatment 3 weeks before cruciate ligament and meniscal repair, postoperative pain and range of motion
Protocol: A physiotherapist suffered a traumatic anterior cruciate ligament rupture with medial meniscal tear. Due to unacceptable symptoms of instability a surgical reconstruction was scheduled. During the waiting period for the operation 3 weeks preoperatively an intra-articular treatment with 2 micrograms of resiniferatoxin dissolved in Ringers lactate buffer at a concentration of 200 ng/ml with immediate prior administration (i.e. within 1 minute) of a local anesthetic (5 ml 0.5% bupivacaine) was applied.
Three weeks later a crucial ligament repair using patellar tendon autograft and arthroscopic meniscal repair was performed. Postoperative pain was restricted to the first 72 hours and below VAS 2 thereafter. Unexpectedly the passive range of motion was flex-extension of 130-0-0° 3 weeks after the operation and further improving thereafter with minimal (VAS 1) pain.

[2] = system: patients with symptoms of frozen shoulders; experiment: Example 4: intra-articular treatment before arthroscopic capsular release, pain and mobility
Protocol: A series of 3 patients with symptoms of frozen shoulders (VAS >6) for at least six month were scheduled for arthroscopic capsular release. All patients were treated with an intra-articular treatment with 2 micrograms of resiniferatoxin dissolved in 10 ml of physiological salt solution containing 4 mM Ca^2+ with immediate prior administration (2.5 and 15 minutes prior to resiniferatoxin) of a local anesthetic (5 ml 0.25% ropivacaine) at 29, 32 and 40 days preoperatively.
Thereafter pain regressed 2 weeks after injection to a level below VAS 3 in all patients. The postoperative pain treatment after capsulotomy included 5 days of regional continuous anesthesia.

[3] = system: patient with symptomatic hallux valgus; experiment: Example 5: intra-articular injection one month before hallux valgus surgery, postoperative pain; details: 200 ng intra-articular one month preoperatively; 2 ml 2% Lidocaine 5 minutes prior; 1 patient
Protocol: A patient with symptomatic hallux valgus was scheduled for surgical treatment. One month preoperatively an intra articular injection 1 ml resiniferatoxin (200 ng) was administered into the interphalangeal join space with prior (5 minutes) periarticular anesthesia using 2 ml 2% Lidocaine.

[4] = system: patients with transtendinous rotator cuff tears; experiment: Example 3: subacromial injection 2 to 6 weeks before arthroscopic cuff repair, postoperative pain and mobility
Protocol: A series of 5 patients with a mean age 62 years and transtendinous rotator cuff tears and having been scheduled for arthroscopic cuff repair was 2 to 6 weeks (13 days for two patients and 16,23 and 41 days for the other three patients) preoperatively treated with a subacromial injection of 0.4 microgram resiniferatoxin dissolved in 10 ml 2% lidocaine.
Postinjection pain was controlled with ice packs and NSAIDS. The postoperative pain protocol included 48 hours of interscalene continuous regional anesthesia. Thereafter pain was exceptionally low (VAS <2) in four out of five patients.

[5] = system: patient with hip osteoarthritis; experiment: Example 1: intra-articular hip infiltration one month before total hip prosthesis, postoperative pain
Protocol: A patient with hip osteoarthritis and pain for 2 years was not treatable anymore with conventional pain medication (NSAIDS, Paracetamol, opioids, etc.) or infiltration (corticosteroids, hyaluronic acid). Therefore the patient was treated with an infiltration into the hip joint under fluoroscopic control with 0.8 micrograms of Resiniferatoxin dissolved in 250 microliters of Ethanol and mixed with 5 ml buffer solution.
10 minutes prior to the injection a local anesthetic (5 ml lidocaine 2%) was applied under fluoroscopic control intra-articularly to prevent injection pain. Moderate post-injection pain after RTX was controlled with oral administration of morphine. One month later the patient still suffered from relevant impairment of hip mobility and peritrochanteric pain and was treated with implantation of a total hip prosthesis.

[6] = system: patient with painful rizarthrosis; experiment: Example 6: injection into painful joint base before surgery for rizarthrosis, postoperative pain
Protocol: A patient with painful rizarthrosis was scheduled for surgical treatment of the disease on week prior to the operation. the patient was injected with 1 ml of a physiological saline solution containing 0.9 mg capsaicin into the painful joint base without prior administration of local anesthetics. The massive pain was treated with ice packs and inter-muscular morphine.

Compound | duration of postoperative pain ([1]; 2 micrograms intra-articular 3 weeks preoperatively, 5 ml 0.5% bupivacaine immediately prior, 1 patient) [h] | postoperative pain (VAS) ([1]; after the first 72 hours) | pain (VAS) ([1]; from 3 weeks after the operation, range of motion further improving) | pain level (VAS) ([2]; 2 weeks after injection, before surgery, all 3 patients, 2 micrograms intra-articular with 4 mM Ca2+, 5 ml 0.25% ropivacaine prior, baseline VAS >6) | postoperative pain (VAS) ([2]; after 5 days of regional continuous anesthesia following capsulotomy, all patients) | maintenance of intraoperatively achieved mobility ([2]; after capsulotomy, all patients) | need for pain medication after surgery [3] | postoperative pain (VAS) ([4]; after 48 hours of interscalene regional anesthesia, in four out of five patients, 0.4 microgram in 10 ml 2% lidocaine subacromial) | clinical signs of stiff or frozen shoulder ([4]; postoperative course up to 1 year follow up) | glenohumeral abduction ([4]; six weeks postoperatively) | pain upon passive external rotation ([4]; six weeks postoperatively, 5 patients) | passive external rotation, difference to contralateral side ([4]; six weeks postoperatively, all patients) [°] | post-injection pain ([5]; 0.8 micrograms intra-articular hip, 5 ml lidocaine 2% 10 minutes prior, controlled with oral morphine) | need for per oral pain medication ([5]; after second postoperative day) | pain reported thereafter ([5]; after second postoperative day) | postoperative pain ([5]; after total hip prosthesis one month after 0.8 micrograms infiltration, 1 patient) | postoperative pain (VAS) ([5]; first postoperative day) | postoperative pain (VAS) ([5]; second postoperative day) | pain after injection ([6]; 0.9 mg in 1 ml saline without prior local anesthetics, treated with ice packs and morphine) | postoperative pain ([6]; 0.9 mg injected on(e) week prior to the operation, 1 patient)
C=C(C)[C@]12C[C@@H](C)[C@@]34O[C@](Cc5ccccc5)(O[C@@H]1[C@@H]3C=C(COC(=O)Cc1ccc(O)c(OC)c1)C[C@]1(O)C(=O)C(C)=C[C@@H]41)O2 [resiniferatoxin] | ≤ 72 | < 2 | 1 | < 3 | < 3 | able to fully maintain their intraoperatively achieved mobility | did not need further pain medication after the second day after surgery | < 2 | no clinical signs corresponding to a stiff or frozen shoulder were observed | at least 80 ° | none of the patients reported pain | ≤ 15 | Moderate | did not need any further per oral pain medication | virtually no pain | moderate to none | 5 | 2 |  | 
COc1cc(CNC(=O)CCCC/C=C/C(C)C)ccc1O [capsaicin] |  |  |  |  |  |  |  |  |  |  |  |  |  |  |  |  |  |  | massive pain | almost no postoperative pain
